Results from ChEMBL document CHEMBL1201862, “PubChem BioAssay data set” (2004).
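Five compound concentrations were applied to cells in 96-well plates for 48 hours; endpoints were derived by simple linear interpolation of the resulting dose-response curve. GI50 marks 50% less growth.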 The source made the active and inactive calls. No stated cut-off is given here; in the data, active = GI50 up to about 1.1 µM and inactive = higher.

Legend:
Assay in all cases: DTP human tumour cell line panel, 48 h
KM12 = test system: KM12
PC-3 = test system: PC-3
A549 = test system: A549
SF-268 = test system: SF-268
MDA-MB-231 = test system: MDA-MB-231
CAKI-1 = test system: CAKI-1
786-0 = test system: 786-0
BT-549 = test system: BT-549
MOLT-4 = test system: MOLT-4
SN12C = test system: SN12C
COLO 205 = test system: COLO 205
SF-295 = test system: SF-295
ACHN = test system: ACHN
HL-60 = test system: HL-60
UACC-257 = test system: UACC-257
OVCAR-3 = test system: OVCAR-3
HOP-92 = test system: HOP-92
SR = test system: SR
MCF7 = test system: MCF7
SNB-75 = test system: SNB-75

Row | SMILES | GI50 (KM12) | GI50 (PC-3) | GI50 (A549) | GI50 (SF-268) | GI50 (MDA-MB-231) | GI50 (CAKI-1) | GI50 (786-0) | GI50 (BT-549) | GI50 (MOLT-4) | GI50 (SN12C) | GI50 (COLO 205) | GI50 (SF-295) | GI50 (ACHN) | GI50 (HL-60) | GI50 (UACC-257) | GI50 (OVCAR-3) | GI50 (HOP-92) | GI50 (SR) | GI50 (MCF7) | GI50 (SNB-75)
1 | Cc1ccc(C(=O)/C=C2\Nc3cccnc3NC2=O)cc1 | > 100 µM (inactive) | > 100 µM (inactive) | > 100 µM (inactive) | 55.8 µM (inactive) | 30.8 µM (inactive) | > 100 µM (inactive) | 40.2 µM (inactive) | > 100 µM (inactive) | > 100 µM (inactive) | > 100 µM (inactive) | > 100 µM (inactive) | > 100 µM (inactive) | > 100 µM (inactive) | > 100 µM (inactive) | > 100 µM (inactive) | > 100 µM (inactive) | > 100 µM (inactive) | > 100 µM (inactive) | > 100 µM (inactive) | –
2 | CC(C)CC(=O)CC(O)C(Cl)(Cl)Cl (stereo not drawn) | > 100 µM (inactive) | > 100 µM (inactive) | > 100 µM (inactive) | – | > 100 µM (inactive) | > 100 µM (inactive) | > 100 µM (inactive) | > 100 µM (inactive) | > 100 µM (inactive) | > 100 µM (inactive) | > 100 µM (inactive) | > 100 µM (inactive) | > 100 µM (inactive) | – | > 100 µM (inactive) | > 100 µM (inactive) | – | > 100 µM (inactive) | > 100 µM (inactive) | > 100 µM (inactive)
3 | O=c1nc2n(CCO)c(-c3ccccc3)c(-c3ccccc3)nc-2c(=O)[nH]1 | > 100 µM (inactive) | > 100 µM (inactive) | > 100 µM (inactive) | > 100 µM (inactive) | > 100 µM (inactive) | > 100 µM (inactive) | > 100 µM (inactive) | > 100 µM (inactive) | > 100 µM (inactive) | > 100 µM (inactive) | > 100 µM (inactive) | > 100 µM (inactive) | > 100 µM (inactive) | – | > 100 µM (inactive) | > 100 µM (inactive) | 88.9 µM (inactive) | 40.6 µM (inactive) | > 100 µM (inactive) | > 100 µM (inactive)
4 | Cc1cccc2c1Oc1cc(Cl)ccc1C2NC(=O)CCN1CCCCC1 (stereo not drawn) | 16.3 µM (inactive) | 14.6 µM (inactive) | 18.7 µM (inactive) | 26.2 µM (inactive) | 20.6 µM (inactive) | – | 14.8 µM (inactive) | 18.7 µM (inactive) | 16.1 µM (inactive) | 17.3 µM (inactive) | 15 µM (inactive) | 18.8 µM (inactive) | – | 15.7 µM (inactive) | 16 µM (inactive) | > 10 µM (inactive) | 2.02 µM (inactive) | 16.2 µM (inactive) | 17.5 µM (inactive) | 14.5 µM (inactive)
5 | CCCCCCCCCC[S+]([O-])CC(CO)NC(=O)/C=C/c1c(C)nc(O)nc1O (stereo not drawn) | 0.202 µM (active) | 1.43 µM (inactive) | 2.22 µM (inactive) | 0.149 µM (active) | 2.97 µM (inactive) | – | 10.9 µM (inactive) | 10.5 µM (inactive) | 0.518 µM (active) | 0.126 µM (active) | 0.247 µM (active) | – | 13.4 µM (inactive) | 0.815 µM (active) | 1.33 µM (inactive) | – | 0.189 µM (active) | 65.2 µM (inactive) | 0.252 µM (active) | 0.272 µM (active)
6 | O=C(c1cccs1)N(C(=S)OCc1ccccn1)c1ccccc1 | 84.9 µM (inactive) | 47.8 µM (inactive) | – | > 100 µM (inactive) | 59.7 µM (inactive) | > 100 µM (inactive) | > 100 µM (inactive) | 47.3 µM (inactive) | 45.7 µM (inactive) | 50.7 µM (inactive) | 88.1 µM (inactive) | 40.4 µM (inactive) | 50.6 µM (inactive) | 38.4 µM (inactive) | > 100 µM (inactive) | 76.9 µM (inactive) | – | > 100 µM (inactive) | 68.4 µM (inactive) | –
7 | CC(=O)O[C@H]1CC[C@@]2(C)C(=CC[C@@H]3[C@@H]2CC[C@]2(C)NC(=O)/C(=C\c4ccccc4)C[C@@H]32)C1 | 18.1 µM (inactive) | 18.4 µM (inactive) | 17.1 µM (inactive) | 19.6 µM (inactive) | 22.6 µM (inactive) | 25.9 µM (inactive) | 17.6 µM (inactive) | 18.6 µM (inactive) | > 100 µM (inactive) | 18.7 µM (inactive) | 17.1 µM (inactive) | 17.8 µM (inactive) | 21.9 µM (inactive) | – | 17.5 µM (inactive) | 12.9 µM (inactive) | – | 55 µM (inactive) | 14.9 µM (inactive) | 19.1 µM (inactive)
8 | COc1ccc2c(N=[N+]=[N-])c(-c3ccccc3)c(=O)oc2c1 | 34.5 µM (inactive) | 52.7 µM (inactive) | 48.4 µM (inactive) | 78.5 µM (inactive) | 87.1 µM (inactive) | 30.1 µM (inactive) | > 100 µM (inactive) | 31.4 µM (inactive) | 21.5 µM (inactive) | 61.1 µM (inactive) | 56.8 µM (inactive) | 61.9 µM (inactive) | 41.1 µM (inactive) | 22.5 µM (inactive) | 29.6 µM (inactive) | – | – | 22.2 µM (inactive) | 36.2 µM (inactive) | > 100 µM (inactive)
